{"source": "patent US9233079B2", "about": "“Method for producing nanocapsules in the absence of an organic solvent, and nanocapsules produced thereby” (UNIVERSITE CLAUDE BERNARD LYON I, priority 2008, dated 2016)", "experiment": "Saturation concentration of chlorhexidine base in water", "format": "physicochemical", "method": "The size and the zeta potential of the nanocapsules, determined using a Zetamaster® S, are 450 nm and −40 mV, respectively. The concentration of free (i.e. nonencapsulated) chiorhexidine in the nanocapsule suspension was determined after filtration of the colloidal suspension through a 0.22 μm filter. After dilution in distilled water, the concentration of chiorhexidine base free in the filtrate, determined by high performance liquid chromatography (HPLC) (H. Lboutounne, V. Faivre, F. Faison, and F. Pirot, Skin Pharmacology and Applied Skin Physiology 17: 176-182 (2004); H. Lboutounne, J.-F. Chaulet, C. Ploton, F. Faison, and F. Pirot Journal of Controlled Release 82: 319-334 (2002); D. T. T. Nhung, A.-M. Freydiere, H. Constant, F. Faison, and F. Pirot International Journal of Pharmaceutics 334:166-172 (2007)), was in the region of 0.008%, i.e. the saturation concentration of chiorhexidine base in water. The concentration of encapsulated chlorhexidine base was determined by virtue of the difference between the total concentration of chlorhexidine base in the suspension and the concentration of free chlorhexidine. The total concentration of encapsulated chiorhexidine base was determined after dilution of an aliquot of colloidal suspension in a mixture of acetonitrile/sodium acetate (30 mM) (50/50, v/v). […]"}
{"compound": "N=C(NCCCCCCNC(=N)NC(=N)Nc1ccc(Cl)cc1)NC(=N)Nc1ccc(Cl)cc1", "note": "[chlorhexidine base, Chlorhexidine base]", "values": [{"measurement": "saturation concentration of chlorhexidine base in water", "result": "~0.008", "unit": "%"}]}
